Reference: the supplement of paper PMC10307832

Columns and labels:
Experiment in all cases: relative viability (nuclei count vs DMSO), 5 days (fraction); higher = more cells survive
[1] = compound: CN[C@@H]1C[C@H]2O[C@@](C)([C@@H]1OC)n1c3ccccc3c3c4c(c5c6ccccc6n2c5c31)C(=O)NC4 [Staurosporine] + CC(=O)c1c(C)c2cnc(Nc3ccc(N4CCNCC4)cn3)nc2n(C2CCCC2)c1=O [Palbociclib] (partner 0.5 µM)
How it was run: (§1)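 Lung cancer cell lines were seeded in 1536-well plates and dosed by pin tool the next day, with either a single drug or a fixed anchor-drug dose combined with five library-drug doses (not always all listed) spaced in √10 steps. Five days later, one step fixed the cells and stained their nuclei (final 0.05% Triton X-100, 1% formaldehyde, 1 ug/ml Hoechst), and nuclei were counted on 4× images. Relative viability is the nuclei count in treated wells divided by the count in vehicle wells, and each value is the median of duplicate plates.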

Sulindac + Dasatinib = compound: CC1=C(CC(=O)O)c2cc(F)ccc2/C1=C\c1ccc([S+](C)[O-])cc1 [Sulindac] + Cc1nc(Nc2ncc(C(=O)Nc3c(C)cccc3Cl)s2)cc(N2CCN(CCO)CC2)n1 [Dasatinib] (partner 0.075 µM)
How it was run: as §1

[2] = compound: CN[C@@H]1C[C@H]2O[C@@](C)([C@@H]1OC)n1c3ccccc3c3c4c(c5c6ccccc6n2c5c31)C(=O)NC4 [Staurosporine] + CC1(C)CCC(c2ccc(Cl)cc2)=C(CN2CCN(c3ccc(C(=O)NS(=O)(=O)c4ccc(N[C@H](CCN5CCOCC5)CSc5ccccc5)c(S(=O)(=O)C(F)(F)F)c4)cc3)CC2)C1 [Navitoclax] (partner 0.5 µM)
How it was run: as §1

5-Fluorouracil + AZD7762 = compound: O=c1[nH]cc(F)c(=O)[nH]1 [5-Fluorouracil] + NC(=O)Nc1cc(-c2cccc(F)c2)sc1C(=O)N[C@H]1CCCNC1 [AZD7762] (partner 0.2 µM)
How it was run: as §1

Cell Line | relative viability ([1]; first compound 0.005 µM) | relative viability ([1]; first compound 0.01581 µM) | relative viability ([1]; first compound 0.05 µM) | relative viability ([1]; first compound 0.1581 µM) | relative viability ([1]; first compound 0.5 µM) | relative viability (Sulindac + Dasatinib; first compound 0.08 µM) | relative viability (Sulindac + Dasatinib; first compound 0.253 µM) | relative viability (Sulindac + Dasatinib; first compound 0.8 µM) | relative viability (Sulindac + Dasatinib; first compound 2.53 µM) | relative viability (Sulindac + Dasatinib; first compound 8 µM) | relative viability ([2]; first compound 0.005 µM) | relative viability ([2]; first compound 0.01581 µM) | relative viability ([2]; first compound 0.05 µM) | relative viability ([2]; first compound 0.1581 µM) | relative viability ([2]; first compound 0.5 µM) | relative viability (5-Fluorouracil + AZD7762; first compound 0.02 µM) | relative viability (5-Fluorouracil + AZD7762; first compound 0.2 µM) | relative viability (5-Fluorouracil + AZD7762; first compound 0.6325 µM) | relative viability (5-Fluorouracil + AZD7762; first compound 2 µM)
LCLC-97TM1 | 0.238 | 0.127 | 0.133 | 0.141 | 0.17 | 0.996 | 0.951 | 0.637 | 0.711 | 0.998 | 0.732 | 0.283 | 0.286 | 0.31 | 0.223 | 0.16 | 0.276 | 0.22 | 0.132
LK-2 | 0.798 | 0.555 | 0.49 | 0.426 | 0.287 | 0.325 | 0.215 | – | – | 0.313 | 0.965 | 0.54 | 0.456 | 0.109 | 0.0967 | 0.482 | 0.486 | 0.153 | 0.188
LOU-NH91 | 0.535 | 0.446 | 0.475 | 0.314 | 0.28 | 0.65 | 0.53 | 0.481 | 0.54 | 0.573 | 0.725 | 0.455 | 0.367 | 0.269 | 0.249 | 0.754 | 0.725 | 0.44 | 0.313
LU99A | 0.366 | 0.196 | 0.196 | 0.211 | 0.174 | 0.596 | 0.533 | 0.509 | 0.522 | 0.714 | 0.876 | 0.589 | 0.359 | 0.211 | 0.128 | 0.364 | 0.458 | 0.368 | 0.177
LXF-289 | 0.717 | 0.21 | 0.16 | 0.141 | 0.117 | 0.24 | 0.223 | 0.227 | 0.25 | 0.225 | 0.944 | – | 0.263 | 0.0806 | 0.14 | 1.1 | 0.495 | 0.342 | 0.313
NCI-H23 | 0.255 | 0.253 | 0.162 | 0.147 | 0.131 | 0.856 | – | 0.801 | 0.755 | 0.78 | 0.764 | 0.412 | 0.257 | 0.2 | 0.12 | 0.142 | 0.208 | 0.163 | 0.172
NCI-H322M | 0.476 | 0.386 | 0.388 | 0.433 | 0.467 | 0.26 | 0.244 | 0.268 | 0.244 | 0.275 | 1.36 | 1.15 | 0.771 | 0.586 | 0.462 | 0.57 | 0.627 | 0.608 | 0.53
NCI-H441 | 0.161 | 0.12 | 0.118 | 0.114 | 0.112 | 0.592 | 0.643 | 0.406 | 0.647 | 0.83 | 0.521 | 0.333 | 0.325 | 0.16 | 0.17 | 1.18 | 0.857 | 0.402 | 0.317
NCI-H460 | 0.0657 | 0.0441 | 0.0429 | 0.0284 | 0.0184 | 0.616 | 0.461 | 0.482 | 0.489 | 0.658 | 0.949 | 0.87 | 0.232 | 0.0102 | 0.0078 | 0.678 | 0.332 | 0.0757 | 0.0672
NCI-H647 | 0.239 | – | 0.0896 | 0.0475 | 0.0477 | 0.257 | 0.201 | 0.126 | 0.194 | 0.247 | 0.728 | 0.142 | 0.291 | 0.0554 | 0.0386 | 0.448 | 0.588 | 0.402 | 0.333
NCI-H727 | 0.649 | 0.557 | 0.5 | 0.447 | 0.443 | 0.345 | 0.333 | – | 0.394 | 0.412 | 0.285 | 0.251 | 0.265 | 0.193 | 0.18 | 0.697 | 0.718 | 0.527 | 0.605
NCI-H838 | 0.151 | 0.138 | 0.151 | 0.121 | 0.0855 | 0.275 | 0.334 | 0.311 | 0.281 | 0.34 | 0.307 | 0.22 | 0.203 | 0.161 | 0.113 | 0.915 | 0.684 | 0.654 | 0.642
NCI-H1355 | 0.411 | 0.3 | 0.214 | 0.188 | 0.161 | 0.872 | 0.756 | – | 0.643 | 0.795 | 0.975 | 0.549 | 0.249 | 0.28 | 0.217 | 0.673 | 0.37 | 0.231 | 0.198
NCI-H1395 | 0.53 | 0.438 | 0.406 | 0.393 | 0.306 | 0.379 | 0.406 | 0.613 | 0.368 | 0.485 | 1.05 | 0.495 | 0.458 | 0.327 | 0.301 | 0.395 | 0.405 | 0.459 | 0.385
NCI-H1437 | 0.27 | 0.182 | 0.168 | 0.116 | – | 0.405 | 0.462 | 0.293 | 0.399 | 0.444 | 0.982 | 0.865 | 0.695 | 0.189 | 0.101 | 0.34 | 0.199 | 0.17 | 0.116
NCI-H1651 | 0.497 | 0.471 | 0.318 | 0.313 | 0.249 | 0.475 | 0.539 | – | 0.419 | 0.777 | 0.897 | 0.559 | 0.305 | 0.112 | 0.0765 | 0.458 | 0.234 | 0.186 | –
NCI-H1666 | 0.63 | 0.555 | 0.679 | 0.482 | 0.462 | 0.945 | 0.875 | 0.716 | 0.871 | 0.995 | 0.722 | 0.554 | 0.395 | 0.324 | 0.202 | 0.708 | 0.389 | 0.462 | 0.426
NCI-H1734 | 0.332 | 0.204 | 0.202 | 0.16 | 0.147 | 0.514 | 0.428 | – | 0.445 | 0.5 | 0.921 | 0.363 | 0.195 | 0.105 | 0.0733 | 0.539 | 0.613 | 0.54 | 0.314
NCI-H1755 | 0.395 | 0.339 | 0.263 | 0.253 | 0.247 | 0.52 | 0.478 | 0.36 | 0.442 | 0.495 | 1.01 | 0.633 | 0.253 | 0.185 | 0.138 | 0.4 | 0.31 | 0.285 | 0.28
NCI-H1792 | 0.614 | 0.577 | 0.323 | 0.274 | 0.26 | 0.881 | 0.867 | – | 0.812 | 0.914 | 0.735 | 0.473 | 0.197 | – | 0.136 | 0.641 | 0.303 | 0.213 | 0.218
NCI-H1793 | 0.446 | – | 0.314 | 0.191 | 0.166 | 0.431 | 0.38 | 0.369 | 0.408 | 0.398 | 0.573 | 0.238 | 0.326 | 0.23 | 0.264 | 0.344 | 0.488 | 0.409 | 0.332
NCI-H1915 | 0.379 | 0.323 | 0.237 | 0.175 | 0.109 | 0.345 | 0.335 | – | 0.291 | 0.322 | 0.829 | – | 0.449 | 0.369 | 0.26 | 0.409 | 0.683 | 0.643 | 0.577
NCI-H1944 | 0.319 | 0.242 | 0.223 | 0.203 | 0.204 | 0.207 | 0.202 | 0.18 | 0.2 | 0.269 | 1.08 | – | 0.763 | 0.562 | 0.359 | 0.475 | 0.199 | 0.106 | 0.0961
NCI-H1975 | 0.16 | 0.124 | 0.159 | 0.0883 | 0.0924 | 0.411 | 0.315 | 0.345 | 0.353 | 0.375 | 0.611 | 0.297 | 0.286 | 0.215 | 0.132 | – | 0.596 | 0.32 | 0.28
NCI-H1993 | 0.776 | 0.685 | 0.526 | 0.395 | 0.339 | 0.569 | 0.516 | 0.543 | 0.581 | 0.575 | 1.04 | 0.645 | 0.54 | 0.44 | 0.435 | 0.737 | 0.622 | 0.542 | 0.505
NCI-H2085 | 0.442 | 0.359 | 0.355 | 0.301 | 0.303 | 0.209 | 0.219 | 0.27 | 0.238 | 0.213 | 0.757 | 0.583 | 0.541 | 0.415 | 0.366 | 0.938 | 0.935 | 0.837 | 0.644
NCI-H2087 | 0.208 | 0.2 | 0.0957 | 0.0793 | 0.0947 | 1.23 | 0.82 | – | 0.8 | 1.11 | 0.744 | 0.679 | 0.374 | 0.133 | 0.103 | 1.42 | 1.01 | 0.606 | 0.408
NCI-H2126 | 0.353 | 0.339 | 0.348 | 0.33 | 0.327 | 0.558 | 0.585 | 0.597 | 0.57 | 0.671 | 0.915 | 0.624 | 0.461 | 0.433 | 0.339 | 0.995 | 0.249 | 0.209 | 0.256
NCI-H2170 | 0.43 | – | 0.314 | 0.218 | 0.176 | 0.631 | 0.586 | 0.659 | 0.508 | 0.741 | 0.708 | 0.376 | 0.421 | 0.219 | 0.189 | 0.793 | 0.718 | 0.317 | 0.236
